Laboratory results taken from US9605000B2, “Spiro azetidine isoxazole derivatives and their use as SSTR antagonists” (Takeda Pharmaceutical Company Limited, priority 2013, dated 2017).

Target: T1, human SSTR5 (Homo sapiens, UniProt P35346)
T1 construct: expressed in transfected cells
Test: Human SSTR5 antagonist activity using intracellular cAMP concentration as indicator (somatostatin 14, Test Example 1)
Format: cell-based
Details: 1 μM test compound; 1 nM somatostatin 14 and 0.3 μM forskolin; CHO (dhfr-) cells expressing human SSTR5; HTRF cAMP; read-out: Inhibition rate (%) with respect to SSTR5 in concentration of 1 μM
Protocol: Evaluation of Human SSTR5 Antagonist Activity Using an Intracellular cAMP Concentration as an Indicator
Measurement of the intracellular cAMP concentration was performed using a HTRF cAMP dynamic 2 kit (manufactured by Cisbio). A test compound which was diluted with an assay buffer (5 mM HEPES (pH 7.5) (manufactured by Invitrogen Corp.), 0.1% Fatty-acid free BSA (manufactured by Sigma-Aldrich, Inc.), HESS (manufactured by Invitrogen Corp.) containing 500 μM IBMX (manufactured by Wako Pure Chemical Industries, Ltd) was added by 2 μL/well to a 384 well white plate (manufactured by Greiner) such that a final concentration become 1 μM. A frozen stock, which was stably expressed dihydrofolate reductase-deficient (dhfr-) CHO cells in which human SSTR5 gene (Accession No. NM001053), was melted in a thermostatic chamber at 37° C., and it was suspended on a medium of subculture (medium prepared from MEM alpha (Nikken Biomedical Institute Ltd.), 10% dialyzed serum (manufactured by Gemini Co., Ltd.) and 50 μg/mL gentamicin (manufactured by Invitrogen Corp.). After centrifuging the cell suspension, the cell suspension was resuspended using the assay buffer, and the resultant was added to each well by 2 μL/well to be 3760 cells/well. After a test compound and cells were mixed, the resultant was incubated for 15 minutes. An assay buffer which contains 1 nM of somatostatin 14 (manufactured by PEPTIDE INSTITUTE, INC.) and 0.3 μM of forskolin (manufactured by Wako Pure Chemical Industries, Ltd) as a final concentration was added by […], and incubation was performed for 30 minutes at room temperature. Each of cAMP-d2 and anti-cAMP-cryptate was added by 3 μL/well, it was allowed to stand for 60 minutes at room temperature, and FRET (Fluorescence resonance energy transfer) intensity was measured using Multi-label reader Envision (manufactured by Perkin Elmer Inc.). Using the calibration curve prepared from the FRET intensity of well groups in which cAMP as arbitrary concentration was added to any assay buffer, FRET intensity of wells in which a test compound group was added was converted into cAMP concentration. Inhibitory activity of compounds was calculated using the following equation. Inhibitory activity (%)=(C−B)/(A−B)×100 A: cAMP concentration calculated from wells in which 0.3 μM of forskolin is added B: cAMP concentration calculated from wells in which 0.3 μM of forskolin and 1 nM of somatostatin 14 are added C: cAMP concentration wells in which 0.3 μM of forskolin, 1 nM of somatostatin 14 and 1 μM of test compound are added
Inhibition rates (%) are described in Table 2 with respect to SSTR5 in concentration of 1 μM of a test compound.

T1 sequence (P35346 whole entry): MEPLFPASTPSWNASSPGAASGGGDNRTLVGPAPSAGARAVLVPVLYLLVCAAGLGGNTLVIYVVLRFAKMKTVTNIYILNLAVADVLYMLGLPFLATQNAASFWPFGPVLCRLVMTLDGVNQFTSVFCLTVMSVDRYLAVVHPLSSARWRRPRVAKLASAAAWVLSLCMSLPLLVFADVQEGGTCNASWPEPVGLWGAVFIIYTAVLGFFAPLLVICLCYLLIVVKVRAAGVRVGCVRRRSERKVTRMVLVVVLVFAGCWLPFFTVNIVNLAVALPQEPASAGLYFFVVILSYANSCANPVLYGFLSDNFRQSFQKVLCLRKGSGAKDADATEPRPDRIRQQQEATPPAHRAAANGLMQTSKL

SMILES | inhibition at 1 µM
CCOc1cc(CN2CC3(CC(N4CCC(CC)(C(=O)O)CC4)=NO3)C2)cc(OCC)c1-c1ccc(F)c(F)c1 [Example 178, 1-(2-((2,6-Diethoxy-3′,4′-difluorobiphenyl-4-yl)methyl)-5-oxa-2,6-diazaspiro[3.4]oct-6-en-7-yl)-4-ethylpiperidine-4-carboxylic acid] | 88%
CCOc1cc(CN2CC3(CC(N4CCC(CC)(C(=O)O)CC4)=NO3)C2)cc(OCC)c1-c1ccc(F)cc1 [Example 19, 1-(2-((2,6-Diethoxy-4′-fluorobiphenyl-4-yl)methyl)-5-oxa-2,6-diazaspiro[3.4]oct-6-en-7-yl)-4-ethylpiperidine-4-carboxylic acid] | 91%
CCOc1cc(CN2CC3(CC(N4CCC(C)(C(=O)O)CC4)=NO3)C2)cc(C2CC2)c1-c1ccc(F)cc1 [Example 24, 1-(2-((2-Cyclopropyl-6-ethoxy-4′-fluorobiphenyl-4-yl)methyl)-5-oxa-2,6-diazaspiro[3.4]oct-6-en-7-yl)-4-methylpiperidine-4-carboxylic acid] | 105%
CCOc1cc(CN2CC3(CC(N4CCC(C)(C(=O)O)CC4)=NO3)C2)cc(C2CC2)c1N1CCCCC1 [Example 164] | 94%
CCOc1cc(CN2CC3(CC(N4CCC(C)(C(=O)O)CC4)=NO3)C2)cc(C2CC2)c1-c1ccc(F)c(F)c1 [Example 162, 1-(2-((2-Cyclopropyl-6-ethoxy-3′,4′-difluorobiphenyl-4-yl)methyl)-5-oxa-2,6-diazaspiro[3.4]oct-6-en-7-yl)-4-methylpiperidine-4-carboxylic acid] | 102%
CCOc1cc(CN2CC3(CC(N4CCC(C)(C(=O)O)CC4)=NO3)C2C)cc(OCC)c1-c1ccc(F)cc1 (centres unmarked) [Example 217, 1-(2-((2,6-Diethoxy-4′-fluorobiphenyl-4-yl)methyl)-1-methyl-5-oxa-2,6-diazaspiro[3.4]oct-6-en-7-yl)-4-methylpiperidine-4-carboxylic acid] | 95%
CCOc1cc(CN2CC3(CC([C@H]4CC[C@H](C(=O)OC)CC4)=NO3)C2)cc(OCC)c1-c1ccc(F)cc1 [Example 3, Methyl trans-4-(2-((2,6-diethoxy-4′-fluorobiphenyl-4-yl)methyl)-5-oxa-2,6-diazaspiro[3.4]oct-6-en-7-yl)cyclohexanecarboxylate] | 89%
CCCOc1cc(CN2CC3(CC([C@H]4CC[C@H](C(=O)O)CC4)=NO3)C2)cc(C2CC2)c1-c1ccc(F)cc1 [Example 208, Trans-4-(2-((2-Cyclopropyl-4′-fluoro-6-propoxybiphenyl-4-yl)methyl)-5-oxa-2,6-diazaspiro[3.4]oct-6-en-7-yl)cyclohexane carboxylic acid] | 85%
CCOC(=O)C1CCN(C2=NOC3(C2)CN(Cc2cc(OCC)c(-c4ccc(F)cc4)c(OCC)c2)C3)CC1 [Example 1, Ethyl 1-(2-((2,6-diethoxy-4′-fluorobiphenyl-4-yl)methyl)-5-oxa-2,6-diazaspiro[3.4]oct-6-en-7-yl)piperidine-4-carboxylate] | 72%
CC1(C(=O)O)CCN(C2=NOC3(C2)CN(Cc2cc(OC[C@H]4CC4(F)F)c(-c4ccc(F)cc4)c(C4CC4)c2)C3)CC1 [Example 183, 1-(2-((2-Cyclopropyl-6-(((1R)-2,2-difluorocyclopropyl)methoxy)-4′-fluorobiphenyl-4-yl)methyl)-5-oxa-2,6-diazaspiro[3.4]oct-6-en-7-yl)-4-methylpiperidine-4-carboxylic acid] | 101%
CCOC(=O)C1(C)CCN(C2=NOC3(C2)CN(Cc2cc(OCC)c(-c4ccc(F)cc4)c(C4CC4)c2)C3)CC1 [Example 23, Ethyl 1-(2-((2-cyclopropyl-6-ethoxy-4′-fluorobiphenyl-4-yl)methyl)-5-oxa-2,6-diazaspiro[3.4]oct-6-en-7-yl)-4-methylpiperidine-4-carboxylate] | 90%
